Earlier results as cited in patent US11603416B2, “Method for preparation of derivatives of gram-positive bacteria surface capsular polysaccharide” (priority 2018, dated 2023).

System: children with severe ASD
Conditions: oral administration; effect disappears once the drug is discontinued

## CN[C@H](CC(C)C)C(=O)N[C@H]1C(=O)N[C@@H](CC(N)=O)C(=O)N[C@H]2C(=O)N[C@H]3C(=O)N[C@H](C(=O)N[C@H](C(=O)O)c4cc(O)cc(O)c4-c4cc3ccc4O)[C@H](O)c3ccc(c(Cl)c3)Oc3cc2cc(c3O[C@@H]2O[C@H](CO)[C@@H](O)[C@H](O)[C@H]2O[C@H]2C[C@](C)(N)[C@H](O)[C@H](C)O2)Oc2ccc(cc2Cl)[C@H]1O [vancomycin]
  child patients whose autism symptoms have been relieved for a short time: 80%
